This is an account of results in EPA's ToxRefDB 2.

Some results are limits rather than exact numbers.

For series [1], the system named is rat. Particulars: Other (NonGuideline or Guideline Not Listed), sprague dawley, Oral, Gavage/Intubation, dose end: 7 day, group: cannot be grouped.
Series [2] concerns rat. The settings on record: Subchronic oral toxicity in rodents, fischer, Feed, dose end: 8 week, group: systemic.
The subject of series [3] is mouse. The settings on record: Subchronic oral toxicity in rodents, b6c3f1, Feed, dose end: 8 week, group: systemic.
The subject of series [4] is rat. The settings on record: Carcinogenicity, fischer, Oral, Feed, dose end: 78 week, group: systemic.
The subject of series [5] is mouse. The settings on record: Carcinogenicity, b6c3f1, Oral, Feed, dose end: 78 week, group: systemic.
In series [6] the test system is mouse. Particulars: Carcinogenicity, b6c3f1, Oral, Feed, dose end: 2 year, group: systemic.
The subject of series [7] is rat. Particulars: Combined chronic toxicity/carcinogenicity, fischer, Oral, Feed, dose end: 2 year, group: systemic.
Series [8] deals with rat. Particulars: Subchronic oral toxicity in rodents, fischer, Feed, dose end: 13 week, group: systemic.
Series [9] has as its system mouse. The settings on record: Subchronic oral toxicity in rodents, b6c3f1, Feed, dose end: 13 week, group: systemic, systemic / in life observation / body weight / body weight + systemic / in life observation / food consumption / food consumption.
Series [10] relates to rat. The settings on record: Multigenerational reproductive toxicity study, sprague dawley, Oral, Feed, dose end: 2 generation.
Series [11] concerns rat. The settings on record: Subchronic oral toxicity in rodents, sprague dawley, Feed, dose end: 90 day, group: systemic.
In the next series the test system is rabbit. Particulars: Prenatal developmental toxicity study, new zealand white, Oral, Gavage/Intubation, dose end: 19 GD.
The subject of series [12] is rat. Particulars: Combined chronic toxicity/carcinogenicity, sprague dawley, Oral, Feed, dose end: 24 month, group: systemic.
Series [13] deals with rat. Particulars: Prenatal developmental toxicity study, wistar, Oral, Gavage/Intubation, dose end: 16 GD.
In series [14] the test system is dog. Particulars: Chronic toxicity, beagle, Oral, Capsule, dose end: 52 week, group: systemic.
The test system of series [15] is dog. The settings on record: Subchronic oral toxicity in dogs, beagle, Capsule, dose end: 90 day, group: systemic, systemic / clinical chemistry / alanine aminotransferase (alt/sgpt) / alanine aminotransferase (alt/sgpt) + systemic / clinical chemistry / ….
The mark [16] stands for this setting: systemic / clinical chemistry / alanine aminotransferase (alt/sgpt) / alanine aminotransferase (alt/sgpt) + systemic / clinical chemistry / ….
Setting [17] is: systemic / in life observation / body weight / body weight gain + systemic / in life observation / clinical signs / defecation + systemic / ….
The mark [18] stands for this setting: systemic / in life observation / body weight / body weight.
The mark [19] stands for this setting: systemic / in life observation / body weight / body weight + systemic / in life observation / mortality / mortality.
[20] abbreviates: systemic / in life observation / body weight / body weight + systemic / pathology microscopic / urinary bladder / carcinoma + systemic / ….
The mark [21] stands for this setting: systemic / in life observation / body weight / body weight + systemic / pathology microscopic / gallbladder / hyperplasia.
Setting [22] is: systemic / in life observation / body weight / body weight + systemic / pathology microscopic / gallbladder / hyperplasia + systemic / ….
Where [23] appears, read: systemic / in life observation / body weight / body weight + systemic / in life observation / food consumption / food consumption.
The mark [24] stands for this setting: systemic / in life observation / food consumption / food consumption.
Setting [25] is: systemic / in life observation / food consumption / food consumption + systemic / pathology microscopic / lung / adenoma/carcinoma combined….
Where [26] appears, read: group: offspring, systemic / in life observation / body weight / offspring (pup) weight gain + systemic / pathology gross / liver / discolored + systemic / ….
[27] abbreviates: group: parental, systemic / organ weight / liver / nos + systemic / pathology gross / liver / accentuated lobular pattern + systemic / pathology gross / ….
The mark [28] stands for this setting: group: reproductive, reproductive / offspring survival early / litter size / litter size.
Where [29] appears, read: systemic / clinical chemistry / aminopyrine-n-demethylase / aminopyrine-n-demethylase.
Setting [30] is: group: developmental, systemic / in life observation / body weight / fetal weight.
Setting [31] is: group: developmental, systemic / in life observation / body weight / fetal weight + developmental / developmental malformation / bone / hole(s).
Setting [32] is: group: maternal, systemic / in life observation / body weight / body weight gain + systemic / in life observation / food consumption / food consumption.
The mark [33] stands for this setting: systemic / hematology / platelet / platelet.
Setting [34] is: systemic / pathology microscopic / adrenal gland / vacuolization + systemic / pathology microscopic / liver / fatty change + systemic / ….
Where [35] appears, read: group: developmental, developmental / developmental malformation / bone / delayed ossification + developmental / developmental malformation / bone / full ….
The mark [36] stands for this setting: group: maternal, reproductive / offspring survival early / offspring survival early other / NOS + systemic / in life observation / body weight / body weight ….
[37] abbreviates: systemic / organ weight / liver / absolute + systemic / clinical chemistry / alanine aminotransferase (alt/sgpt) / alanine aminotransferase….

In the case of `CCOc1cccc(-n2cc(C(=O)N3CCN(c4cc(C(=O)[O-])c5ccccc5c4)CC3)nc2-c2ccc(C)cc2)c1.[Na+]`, in the series on rat [1] (setting [16]), the LOAEL (commonly the lowest tested level that showed an adverse finding) was over 500 mg/kg/day and the NOAEL (usually the highest dose or exposure tested at which no adverse effect was seen) is at least 500 mg/kg/day. In the series with rat [1] (setting [17]), the LEL amounted to 10 mg/kg/day and the NEL was under 10 mg/kg/day.

For `Nc1ccc(Cl)cc1N` [4-Chloro-1,2-diaminobenzene], the LEL in the series on rat [2] (setting [18]) was found to be 500 mg/kg/day; in the series on mouse [3] (setting [18]), 1500 mg/kg/day; in the series on rat [4] (setting [20]) it was 250 mg/kg/day; with mouse [5] (setting [22]), 1050 mg/kg/day. Also, the LOAEL turned out to be 500 mg/kg/day in the series with rat [2] (setting [18]), 1500 mg/kg/day with mouse [3] (setting [18]), 250 mg/kg/day in the series with rat [4] (setting [18]) and 1050 mg/kg/day in the series with mouse [5] (setting [21]). Further, the NEL in the series with rat [2] (setting [19]) was 50 mg/kg/day; in the series on mouse [3] (setting [19]) it was 150 mg/kg/day; in the series with rat [4] (setting [20]), under 250 mg/kg/day; in the series on mouse [5] (setting [22]), under 1050 mg/kg/day. Besides, the NOAEL in the series on rat [2] (setting [19]) was 50 mg/kg/day; in the series with mouse [3] (setting [19]) it was 150 mg/kg/day; in the series on rat [4] (setting [18]), under 250 mg/kg/day; in the series with mouse [5] (setting [21]), under 1050 mg/kg/day.

In the case of `Oc1cccc2cccnc12` [8-Hydroxyquinoline], the LOAEL was over 396 mg/kg/day in the series with mouse [6] (setting [23]), over 143 mg/kg/day with rat [7] (setting [25]), 300 mg/kg/day in the series on rat [8] (setting [23]) and 900 mg/kg/day with mouse [9]. The NOAEL in the series with mouse [6] (setting [23]) was at least 396 mg/kg/day; in the series on rat [7] (setting [25]), at least 143 mg/kg/day; in the series on rat [8] (setting [23]) it was 150 mg/kg/day; in the series on mouse [9] it was 450 mg/kg/day. Moreover, the LEL was determined as 217 mg/kg/day in the series on mouse [6] (setting [24]), 73 mg/kg/day in the series with rat [7] (setting [24]), 150 mg/kg/day in the series with rat [8] (setting [24]) and 900 mg/kg/day in the series on mouse [9]. Moreover, the NEL was under 217 mg/kg/day in the series on mouse [6] (setting [24]), under 73 mg/kg/day with rat [7] (setting [24]), 75 mg/kg/day in the series on rat [8] (setting [23]) and 450 mg/kg/day with mouse [9].

Take `CCCCC(O)(Cn1cncn1)c1ccc(Cl)cc1Cl` (stereo not given) [Hexaconazole]: the LEL worked out at 50 mg/kg/day in the series on rat [10] (setting [26]); 5 mg/kg/day in the series on rat [10] (group: parental, systemic / pathology microscopic / liver / fatty change); 50 mg/kg/day in the series on rat [10] (setting [28]); 2.5 mg/kg/day in the series with rat [11] (setting [29]); 50 mg/kg/day in the series on rabbit (setting [30]); 100 mg/kg/day in the series on rabbit (setting [32]). For the same molecule, the LEL was determined as 0.47 mg/kg/day with rat [12] (setting [33]); 2.5 mg/kg/day with rat [13] (setting [35]); 250 mg/kg/day in the series on rat [13] (setting [36]); 10 mg/kg/day in the series with dog [14] (systemic / organ weight / liver / absolute + systemic / pathology microscopic / liver / lipid deposition + systemic / clinical chemistry / …); 25 mg/kg/day in the series on dog [15]. Also, the LOAEL amounted to 50 mg/kg/day with rat [10] (setting [26]); 50 mg/kg/day in the series on rat [10] (setting [27]); 50 mg/kg/day in the series on rat [10] (setting [28]); 25 mg/kg/day in the series with rat [11] (systemic / pathology microscopic / adrenal gland / vacuolization + systemic / pathology microscopic / liver / fatty change); 50 mg/kg/day in the series with rabbit (setting [30]); 100 mg/kg/day in the series on rabbit (group: maternal, systemic / in life observation / body weight / body weight gain). Moreover, the LOAEL was 4.7 mg/kg/day with rat [12] (setting [34]); 2.5 mg/kg/day in the series with rat [13] (setting [35]); 250 mg/kg/day in the series with rat [13] (setting [36]); 10 mg/kg/day in the series on dog [14] (systemic / organ weight / liver / absolute + systemic / pathology microscopic / liver / lipid deposition); 25 mg/kg/day in the series on dog [15]. For the same molecule, the NEL in the series on rat [10] (setting [26]) is 5 mg/kg/day; in the series on rat [10] (setting [27]) it was 1 mg/kg/day; in the series with rat [10] (setting [28]) it was 5 mg/kg/day; with rat [11] (setting [29]) it was under 2.5 mg/kg/day; in the series on rabbit (setting [31]) it was 25 mg/kg/day; in the series on rabbit (setting [32]), 50 mg/kg/day. In addition, the NEL in the series on rat [12] (setting [33]) is under 0.47 mg/kg/day; in the series with rat [13] (setting [35]) it was under 2.5 mg/kg/day; in the series on rat [13] (setting [36]) it was 25 mg/kg/day; with dog [14] (setting [37]), 2 mg/kg/day; in the series with dog [15], 5 mg/kg/day. Also, the NOAEL in the series with rat [10] (setting [26]) came out at 5 mg/kg/day; in the series with rat [10] (setting [27]) it was 5 mg/kg/day; in the series with rat [10] (setting [28]) it was 5 mg/kg/day; in the series on rat [11] (systemic / pathology microscopic / adrenal gland / vacuolization + systemic / clinical chemistry / alanine aminotransferase (alt/sgpt) / …), 2.5 mg/kg/day; with rabbit (setting [31]) it was 25 mg/kg/day; with rabbit (setting [32]), 50 mg/kg/day. Also, the no observed adverse effect level (NOAEL) with rat [12] (setting [34]) was 0.47 mg/kg/day; with rat [13] (setting [35]), under 2.5 mg/kg/day; with rat [13] (setting [36]), 25 mg/kg/day; in the series on dog [14] (setting [37]), 2 mg/kg/day; in the series on dog [15], 5 mg/kg/day.
